Data reported in patent US5416090A, “Method of treating inflammation” (priority 1992, dated 1995).

Legend:
[1] = test system: delayed type hypersensitivity (picryl chloride induced foot pad swelling); assay: Murine delayed type hypersensitivity (DTH) response, picryl chloride; assay type: in vivo, mouse (Balb/c); conditions: for inhibition of DTH response: FIG. 8 legend
Protocol: The activity of ergoline compounds was also evaluated in a murine delayed-type hypersensitivity (DTH) assay. The DTH assay was performed in substantial accordance with the method set forth in Example 1. Briefly, mice were sensitized by topical administration of picryl chloride on day 1 of the assay. On day 4 paw size was determined and recorded and the paw was then challenged with picryl chloride. The challenged paw was remeasured on day 5 to quantitate the DTH response via the increase in paw size.
(§1) Male Balb/c mice (Charles River) weighing 20 to 25 g were used in all DTH studies. When adrenalectomized studies were carried out, sham surgery and adrenalectomized mice were obtained from the vendor. Animals were maintained on a 12:12 hour light:dark cycle. Mice were allowed ad lib access for food (Purina lab chow) and water (normal saline for adrenalectomized animals).
(§2) A DTH response was assessed by measuring the degree of rear foot pad swelling induced by picryl chloride. On day 0, mice were sensitized with 100 μl of 5% picryl chloride (in ethanol), which was applied to a shaved abdomen. Negative control groups were shaved but not sensitized. On day 3, mice were anesthetized with methoxyflurane, and the baseline rear foot pad thickness was measured with a micrometer (Mitutoyo) in μ, and was recorded in duplicate. Fifty μl of picryl chloride was then applied to each pad with a pipet (Rainen) while the animal was unconscious. The negative controls also received picryl chloride at this point to control for primary irritancy. Twenty-four hours later, the mice were sacrificed by CO2 asphyxiation and each rear foot pad was again measured in duplicate, and any evidence of foot pad swelling was calculated. The mean rear foot swelling change of both pads for each animal from days 3 to 4 was used as the index of immune function in the DTH assay.
(§3) Unless otherwise stated all animals were given four subcutaneous doses of test compound just prior to picryl chloride sensitization on day 0, on day 1 and day 2, and just prior to picryl chloride challenge on day 3. In a few experiments, compounds were administered via oral or intraperitoneal routes. All drugs were delivered as suspensions in 1% carboxy-methylcellulose (also contained 0.8% NaCl, 1% polysorbate-80, 1.4% benzyl alcohol). Carboxymethyl-cellulose (1%) was used in control injections.

[2] = test system: carrageenan induced paw swelling; assay: Carrageenan edema model (acute paw inflammation); assay type: in vivo, rat (Lewis)
α adrenergic receptors = conditions: background; cited from earlier work
inflammatory models = conditions: cited from earlier work
D-2 dopamine = conditions: background; cited from earlier work
corticosterone = assay: Serum/plasma corticosterone levels in mice; assay type: in vivo, mouse (Balb/C); conditions: FIG. 10 Panel A; 1 and 3 hr. following injection
From the text: Dopamine agonists are known to elevate circulating glucocorticoid levels, via activation of the hypothalamo-pituitary-adrenal axis. […] Since glucocorticoids are potential endogenous anti-inflammatory substances, this action is one potential mechanism for the anti-inflammatory effect of the ergolines. However, in subsequent inflammation studies, the anti-inflammatory effects of D-1-isopropyl-6-n-propyl-8β-methylthiomethyl ergoline were retained in mice lacking an adrenal gland and therefore devoid of the increase in circulating corticosterone. (FIG. 10B)
Both Balb/C mice (male, approximately 20 g, Charles Rivers) and Lewis rats (male, approximately 200 g, Charles River or Harlan Sprague Dawley) were used in neuroendocrine studies. Animals were maintained on a 12:12 hour light:dark cycle and were allowed ad lib access for food (Purina lab chow) and water. Experimental groups consisted of 6 to 8 animals.
After dosing with test compounds, animals were sacrificed by decapitation at 1, 3, 8 or 24 hour intervals. Trunk blood was collected, allowed to clot and serum obtained after centrifugation (3000 rpm for 15 min.). Serum was aliquoted and stored at -70° C. for subsequent radioimmunoassays. Serum prolactin was determined by radioimmunoassay. Serum corticosterone levels were determined with a kit designed for such determinations and obtained from ICN.

dopamine receptor = assay: Affinity at the dopamine receptor; assay type: binding
[3] = test system: dopamine receptor (DTH response); assay: Reversal of DTH inhibition by dopamine receptor antagonists; assay type: in vivo, mouse
Protocol: as §1, §2, §3

[4] = Table 2, single oral dose 0.1 mg/kg
[5] = Table 2, single oral dose 0.3 mg/kg
[6] = Table 2, single oral dose 1.0 mg/kg
[7] = Table 2, single oral dose 3.0 mg/kg
[8] = Table 1, single oral dose 30.0 mg/kg
[9] = Table 2, single oral dose 30.0 mg/kg

## CCCN1CCC[C@H]2Cc3nc(N)sc3C[C@@H]21 (racemic) [Compound 6, trans-(±)-2-amino-5-n-propyl-4,4a,5,6,7,8,8a,9-octahydrothiazolo [4,5-g] quinoline]
[1]; 10 mg/kg
  reduction of paw swelling (DTH): statistically significant

## CCCN1CCC[C@H]2Cc3nc(N)ncc3C[C@@H]21 (racemic) [Compound 8, trans-(±)-2-amino-6-n-propyl-5,5a,6,7,8,9,9a,10-octahydropyrimido[4,5-g] quinoline]
[1]; 1 mg/kg
  reduction of paw swelling (DTH): statistically significant decrease in inflammation
[1]
  inhibition of DTH response: lack of inhibition

## CCCN1CCC[C@H]2Cc3nc(N)ccc3C[C@@H]21 (relative stereo) [Compound 7, trans-(±)-2-amino-6-propyl-5,5a,6,7,8,9,9a,10-octahydropyrido [2-3 g] quinoline]
[1]; 10 mg/kg
  reduction of paw swelling (DTH): statistically significant

## CCCN1CC(CO)=C[C@H]2Cc3n[nH]cc3C[C@@H]21 (relative stereo) [Compound 9, 7-(5-n-propyl-trans-4,4a,5,6,8a,9-hexahydro-2H-pyrazolo[3,4-g)quinoline) methanol]
[1]; 3 mg/kg
  reduction of paw swelling (DTH): statistically significant
[1]; 10 mg/kg
  reduction of paw swelling (DTH): statistically significant
[1]
  inhibition of DTH response: inhibition

## CC(C)CC1C(=O)N2CCCC2C2(O)OC(NC(=O)C3C=C4c5cccc6[nH]c(Br)c(c56)CC4N(C)C3)(C(C)C)C(=O)N12 (stereo not drawn) [Bromocriptine, α-bromo-ergocryptine]
[2]; [4]
  % Inhibition: 0%
  Paw Weight Difference: 0.923 ± 0.039 g
[2]; [5]
  % Inhibition: 0%
  Paw Weight Difference: 0.937 ± 0.060 g
[2]; [6]
  % Inhibition: 0%
  Paw Weight Difference: 0.803 ± 0.046 g
[2]; [7]
  % Inhibition: 0%
  Paw Weight Difference: 0.931 ± 0.067 g
[2]; doses as high as 3 mg/kg, po
  activity in the acute inflammation model: no activity
α adrenergic receptors
  action at α adrenergic receptors: act at α adrenergic receptors
Inflammatory models
  basis of activity in inflammatory models of the literature: due to immunosuppressive activity
D-2 dopamine
  D-2 dopamine agonist activity: D-2 dopamine agonists

## CCCN1C[C@H](CSC)C[C@@H]2c3cccc4[nH]nc(c34)C[C@H]21 [Compound 4, D-2-aza-6-n-propyl-8β-methylthiomethyl ergoline]
[1]; 1 mg/kg
  reduction of paw swelling (DTH): reduced paw swelling
[1]; 3 mg/kg
  reduction of paw swelling (DTH): statistically significant
[1]; 10 mg/kg
  reduction of paw swelling (DTH): statistically significant

## CCCN1CC(CO)CC2Cc3n[nH]cc3CC21 (stereo not drawn) [Compound 10, 7-(5-n-propyl-trans-4,4a,5,6,7,8,8a, 9-Octahydro-2H-pyrazolo[3,4-g]quinoline) methanol]
[1]; 3 mg/kg
  reduction of paw swelling (DTH): statistically significant
[1]; 10 mg/kg
  reduction of paw swelling (DTH): statistically significant
corticosterone
  effect on plasma corticosterone: increase plasma cortiosterone

## CCCCCN1C[C@H](CSC)C[C@@H]2c3cccc4[nH]cc(c34)C[C@H]21 [D-6-n-pentyl-8β-methylthiomethyl ergoline]
Dopamine receptor
  affinity at the dopamine receptor: minimal affinity
[1]; FIGS. 7-9A studies
  anti-inflammatory activity: no anti-inflammatory activity

## O=c1[nH]c2ccccc2n1CCCN1CCC(n2c(=O)[nH]c3cc(Cl)ccc32)CC1 [Domperidone]
[3]; FIG. 9 Panel B
  effect on anti-inflammatory activity of D-1-isopropyl-6-n-propyl-8β-methylthiomethyl ergoline: reversed the anti-inflammatory activity

## CC(C(=O)O)c1cccc(Oc2ccccc2)c1 (stereo not shown) [Fenoprofen]
[2]; 30 mg/kg
  effectiveness in suppressing inflammation compared with pergolide: not as effective as pergolide
[2]; [8]
  % Inhibition: 52%
  Paw Weight Difference: 0.353 ± 0.043 g
[2]; [9]
  % Inhibition: 55%
  Paw Weight Difference: 0.379 ± 0.028 g

## CCN1CCCC1CNC(=O)c1cc(S(N)(=O)=O)ccc1OC (stereo not shown) [Sulpiride]
[3]; FIG. 9 Panel C, sulpiride 3, 10 and 30 mg/kg
  effect on inflammatory response in animals given 10 mg/kg of compound 10: partially restored the inflammatory response
